{"source": "patent US20260363244A1", "about": "“HERBICIDAL COMPOSITIONS COMPRISING URACILS” (BASF SE, priority 2022, published 2026)", "assay_type_in_all_cases": "in vivo", "key": {"[1]": {"system": "Avena fatua", "assay": "greenhouse post-emergence herbicidal activity, AVEFA", "conditions": "read-out: % activity (solo application); for activity at 0.8 g/ha: 0.8 gai/ha; for activity at 0.5 g/ha: 0.5 gai/ha", "procedure": "(§1) The following examples serve to illustrate the invention.\n(§2) The culture containers used were plastic pots containing loamy sand with approximately 3.0% of humus as substrate. The seeds of the test plants were sown separately for each species.\n(§3) For the post-emergence treatment, the test plants were grown to a plant height of from 3 to 15 cm, depending on the plant habit, and only then treated with the active compounds which had been suspended or emulsified in water. To this end, the test plants were either sown directly, and grown in the same containers, or they were first grown separately as seedlings and transplanted into the test containers a few days prior to treatment.\n(§4) Depending on the species, the plants were kept at 10-25 °C and 20-35 °C, respectively. The test period extended over 2 to 4 weeks. During this time, the plants were tended and their response to the individual treatments was evaluated.\n(§5) Evaluation was carried out using a scale from 0 to 100. 100 means no emergence of the plants, or complete destruction of at least the above-ground parts, and 0 means no damage or normal course of growth. A good herbicidal activity is given at values of at least 70, and very good herbicidal activity is given at values of at least 85.\n(§6) The respective stated components A and B, and if appropriate, C were formulated as a 5% by weight strength emulsion concentrate and, with addition of the amount of solvent system, introduced into the spray liquor used for applying the active compound. In the examples, the solvent used was water.\n(§7) In the examples below, using the method of S. R. Colby (1967) “Calculating synergistic and antagonistic responses of herbicide combinations”, Weeds 15, p. 22ff., the value E, which is expected if the activity of the individual active compounds is only additive, was calculated.\n(§8) E=X+Y−(X·Y/100) • where • X=percent activity using active compound A at an application rate a; • Y=percent activity using active compound B at an application rate b; • E=expected activity (in %) by A+B at application rates a+b.\n(§9) The plants used in the greenhouse experiments were of the following species\n(§10) In this context, a.i. means active ingredient, based on 100% active ingredient.\n(§11) As indicated the application was post emergent (POST) at the respective growth stage (GS) of the weed.\n(§12) Assessment was at the indicated days after treatment (DAT)."}, "[2]": {"system": "Sorghum halepense", "assay": "greenhouse post-emergence herbicidal activity, SORHA", "conditions": "Sorghum halepense, post-emergence, 480 h, GS 11-33, 20 DAT, read-out: % activity (solo application)", "procedure": "as §1, §2, §3, §4, §5, §6, §7, §8, §9, §10, §11, §12"}, "[3]": {"system": "Eleusine indica", "assay": "greenhouse post-emergence herbicidal activity, ELEIN", "conditions": "read-out: % activity (solo application); for activity at […]: 1.6 gai/ha", "procedure": "as §1, §2, §3, §4, §5, §6, §7, §8, §9, §10, §11, §12"}, "[4]": {"system": "Commenline benghalensis", "assay": "greenhouse post-emergence herbicidal activity, COMBE", "conditions": "read-out: % activity (solo application)", "procedure": "as §1, §2, §3, §4, §5, §6, §7, §8, §9, §10, §11, §12"}, "[5]": {"system": "Setaria viridis", "assay": "greenhouse post-emergence herbicidal activity, SETVI", "conditions": "Setaria viridis, post-emergence, read-out: % activity (solo application); for activity at 0.5 g/ha: 0.5 gai/ha; for activity at 0.2 g/ha: 0.2 gai/ha; for activity at 0.4 g/ha: 0.4 gai/ha", "procedure": "as §1, §2, §3, §4, §5, §6, §7, §8, §9, §10, §11, §12"}, "[6]": {"system": "Kochia scoparia", "assay": "greenhouse post-emergence herbicidal activity, KCHSC", "conditions": "Bassia scoparia, post-emergence, read-out: % activity (solo application); for activity at 0.4 g/ha: 0.4 gai/ha; for activity at 0.8 g/ha: 0.8 gai/ha", "procedure": "as §1, §2, §3, §4, §5, §6, §7, §8, §9, §10, §11, §12"}, "[7]": {"conditions": "144 h, GS 12-16, 6 DAT, 0.25 gai/ha"}, "[8]": {"conditions": "480 h, GS 11-33, 20 DAT, 0.2 gai/ha"}, "[9]": {"conditions": "480 h, GS 11-33, 20 DAT, 1.6 gai/ha"}, "[10]": {"conditions": "480 h, GS 12-16, 20 DAT, 0.25 gai/ha"}}, "note": "Read-outs that look alike come from different tables or passages of the source.", "data": [{"smiles": "CCOC(=O)COc1ccccc1Oc1nc(-n2c(=O)cc(C(F)(F)F)n(C)c2=O)c(F)cc1Cl", "note": "[(I.3)]", "values": [{"measurement": "activity at […]", "setting": "[1]; [7]", "result": 35, "unit": "%"}, {"measurement": "activity at 0.8 g/ha", "setting": "[1]; 168 h, GS 11-33, 7 DAT", "result": 25, "unit": "%"}, {"measurement": "activity at […]", "setting": "[1]; 168 h, GS 11-33, 7 DAT, 1.6 gai/ha", "result": 40, "unit": "%"}, {"measurement": "activity at […]", "setting": "[1]; 168 h, GS 12-16, 7 DAT, 0.25 gai/ha", "result": 35, "unit": "%"}, {"measurement": "activity at 0.5 g/ha", "setting": "[1]; 168 h, GS 12-16, 7 DAT", "result": 40, "unit": "%"}, {"measurement": "activity at 0.2 g/ha", "setting": "[1]; [8]", "result": 10, "unit": "%"}, {"measurement": "activity at 0.8 g/ha", "setting": "[1]; 480 h, GS 11-33, 20 DAT", "result": 15, "unit": "%"}, {"measurement": "activity at […]", "setting": "[1]; [9]", "result": 30, "unit": "%"}, {"measurement": "activity at […]", "setting": "[1]; [10]", "result": 10, "unit": "%"}, {"measurement": "activity at 0.5 g/ha", "setting": "[1]; 480 h, GS 12-16, 20 DAT", "result": 25, "unit": "%"}, {"measurement": "activity at 0.2 g/ha", "setting": "[2]; 0.2 gai/ha", "result": 10, "unit": "%"}, {"measurement": "activity at 0.4 g/ha", "setting": "[2]; 0.4 gai/ha", "result": 20, "unit": "%"}, {"measurement": "activity at 0.8 g/ha", "setting": "[2]; 0.8 gai/ha", "result": 30, "unit": "%"}, {"measurement": "activity at […]", "setting": "[2]; 1.6 gai/ha", "result": 30, "unit": "%"}, {"measurement": "activity at […]", "setting": "[3]; 168 h, GS 11-33, 7 DAT", "result": 95, "unit": "%"}, {"measurement": "activity at 0.2 g/ha", "setting": "[3]; [8]", "result": 20, "unit": "%"}, {"measurement": "activity at […]", "setting": "[3]; 480 h, GS 11-33, 20 DAT", "result": 90, "unit": "%"}, {"measurement": "activity at 0.5 g/ha", "setting": "[3]; 480 h, GS 12-16, 20 DAT, 0.5 gai/ha", "result": 35, "unit": "%"}, {"measurement": "activity at […]", "setting": "[4]; [7]", "result": 40, "unit": "%"}, {"measurement": "activity at 0.5 g/ha", "setting": "[4]; 144 h, GS 12-16, 6 DAT, 0.5 gai/ha", "result": 90, "unit": "%"}, {"measurement": "activity at 0.2 g/ha", "setting": "[4]; 168 h, GS 11-33, 7 DAT, 0.2 gai/ha", "result": 20, "unit": "%"}, {"measurement": "activity at […]", "setting": "[4]; [9]", "result": 95, "unit": "%"}, {"measurement": "activity at […]", "setting": "[4]; [10]", "result": 60, "unit": "%"}, {"measurement": "activity at […]", "setting": "[5]; [7]", "result": 35, "unit": "%"}, {"measurement": "activity at 0.5 g/ha", "setting": "[5]; 144 h, GS 12-16, 6 DAT", "result": 60, "unit": "%"}, {"measurement": "activity at 0.2 g/ha", "setting": "[5]; 192 h, GS 11-33, 8 DAT", "result": 20, "unit": "%"}, {"measurement": "activity at 0.4 g/ha", "setting": "[5]; 192 h, GS 11-33, 8 DAT", "result": 25, "unit": "%"}, {"measurement": "activity at […]", "setting": "[5]; 192 h, GS 11-33, 8 DAT, 1.6 gai/ha", "result": 95, "unit": "%"}, {"measurement": "activity at 0.2 g/ha", "setting": "[5]; 480 h, GS 11-33, 20 DAT", "result": 5, "unit": "%"}, {"measurement": "activity at 0.4 g/ha", "setting": "[5]; 480 h, GS 11-33, 20 DAT", "result": 10, "unit": "%"}, {"measurement": "activity at […]", "setting": "[5]; [9]", "result": 90, "unit": "%"}, {"measurement": "activity at […]", "setting": "[5]; [10]", "result": 30, "unit": "%"}, {"measurement": "activity at 0.5 g/ha", "setting": "[5]; 480 h, GS 12-16, 20 DAT", "result": 85, "unit": "%"}, {"measurement": "activity at 0.4 g/ha", "setting": "[6]; 168 h, GS 11-33, 7 DAT", "result": 60, "unit": "%"}, {"measurement": "activity at 0.8 g/ha", "setting": "[6]; 168 h, GS 11-33, 7 DAT", "result": 75, "unit": "%"}, {"measurement": "activity at 0.2 g/ha", "setting": "[6]; [8]", "result": 15, "unit": "%"}, {"measurement": "activity at 0.4 g/ha", "setting": "[6]; 480 h, GS 11-33, 20 DAT", "result": 30, "unit": "%"}, {"measurement": "activity at 0.8 g/ha", "setting": "[6]; 480 h, GS 11-33, 20 DAT", "result": 55, "unit": "%"}, {"measurement": "activity at […]", "setting": "[6]; [9]", "result": 75, "unit": "%"}, {"measurement": "activity at […]", "setting": "[6]; [10]", "result": 40, "unit": "%"}]}]}
